Data published in US6492492B1, “Circularly permuted biotin binding proteins” (University of Washington, priority 1998, dated 2002).
Values joined by “and” are separate entries in the source; they are usually repeats but may differ in a detail not shown here. Equal values may be shown once. Read-outs that look alike come from different tables or passages of the source.

B1: CP51/46: Circularly permuted core streptavidin; termini 13 and 139 joined by GGGS linker, loop residues 47-50 removed, new termini Glu51 and Ala46 (SEQ ID NO:4) (protein)
chain: MESRYVLTGRYDSAPATDGSGTALGWTVAWKNNYRNAHSATTWSGQYVGGAEARINTQWLLTSGTTEANAWKSTLVEHDTFTKVKPSAASGGGSAEAGITGTWYNQLGSTFIVTAGADGALTGTYESA

Assays:
[1] = Isothermal titration calorimetry of biotin binding; conditions: for ΔCp: Table 1a, CP51/46 in PB; for ΔCp observed: change in heat capacity of biotin association, linear fit of ΔH° versus temperature
Protocol: Isothermal titration calorimetry (ITC) experiments on wild-type streptavidin were performed on a MicroCal Omega instrument. ITC experiments on CP51/46 were done using a Calorimetry Science Corporation 4200 Calorimeter (Provo, Utah). CP51/46 solutions of 30-40 μM concentration were titrated by the addition of 20×5μL aliquots of 750 μM biotin dissolved in the same buffer as the protein. All ITC experiments were done in either phosphate (50 mM sodium phosphate, 100 mM NaCl, pH 7.75) or Tris (50 mM Tris HCl, 100 mM NaCl, pH 7.75) buffers. Biotin concentrations were determined gravimetrically. Data were analyzed using the proprietary software supplied by Calorimetry Science Corporation with the instrument. Heats of dilution for each injection were subtracted from the reaction heats before data analysis. Nonlinear fitting of the data allowed the number of binding sites (n), association constant (Ka), and binding enthalpy (ΔH°) to be determined assuming noncooperative binding and one site per subunit.

[2] = wild-type, cited from earlier work; for Ka: biotin association, estimated (Green 1990); for ΔH°: 25° C. (Chilkoti 1995)
[3] = Tris buffer, per mol of subunits
[4] = phosphate buffer (PB), 25° C., per mol of subunits

Molecule | ΔCp ([1]; per mol of subunits) | ΔCp observed [1] | TΔS° ([1]; wild-type, 25° C., from estimated Ka and Gibb's free energy) | TΔS° ([1]; wild-type, 25° C., from estimated Ka and Gibb's free energy, listed as wild-type streptavidin) | ΔG° ([1]; wild-type, from estimated Ka, per mol of subunits) | Ka [2] | Ka ([2]; listed as Wild-type streptavidin) | Ka ([2]; listed as streptavidin) | ΔH° [2] | ΔH° ([2]; listed as wild type streptavidin) | TΔS° [1, 3] | ΔG° [1, 3] | ΔH° [1, 3] | Ka ([1]; biotin association, Tris buffer pH 7.75, per mol of subunits) | TΔS° [1, 4] | ΔG° [1, 4] | ΔH° [1, 4]
wild-type: Wild-type core streptavidin (SEQ ID NO:1), comparator for biotin binding [reference compound] | -345 ± 12 cal/mol·°C | −345 cal/mol° C. | -6.6 ± 0.4 kcal/mol | -6.6 kcal/mol | -18 kcal/mol | 2.5e+13 M⁻¹ | ~2.5e+13 M⁻¹ | approximately 2.5×10^13 M^−1 | -24.9 ± 0.4 kcal/mol | -24.9 kcal/mol | – | – | – | – | – | – | –
B1 | -95 ± 29 cal/mol·°C | −95 cal/mol° C. | – | – | – | – | – | – | – | – | -3.3 ± 0.7 kcal/mol | -10.1 kcal/mol | -13.4 ± 0.7 kcal/mol | (2.47 ± 1.87) × 10^7 M^−1 | −3.8 (±0.8) kcal/mol and −3.8 ± 0.8 kcal/mol | -10.0 kcal/mol | −13.8 (±0.8) kcal/mol and −13.8 ± 0.8 kcal/mol
